Laboratory results taken from patent US8268823B2, “Medical use of triazine derivatives” (University of Greenwich, priority 2006, dated 2012).
Where two headings read alike, the source gives them in different places. Blank lines part the entries; values can stand above or below the compound they belong to.

Columns and labels:
[1] = target: T1, DiHydroFolate Reductase (DHFR) (Rattus norvegicus, UniProt Q920D2); test: inhibition of binding of [3H]methotrexate to rat liver homogenate supernatant; conditions: for IC50: rat liver supernatant; for inhibition at 20 µM: assay concentration 20 μM; for inhibition at 495 µM: assay concentration 495 μM
T1 construct: from tissue; host or cells: rat liver homogenate supernatant (47,500 x g)
T1 sequence (Q920D2 1-187): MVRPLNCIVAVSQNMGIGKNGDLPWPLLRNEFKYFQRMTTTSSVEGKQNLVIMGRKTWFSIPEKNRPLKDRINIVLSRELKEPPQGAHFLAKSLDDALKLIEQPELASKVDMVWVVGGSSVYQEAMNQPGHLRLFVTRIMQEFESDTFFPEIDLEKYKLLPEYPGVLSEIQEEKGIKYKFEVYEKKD
Description: All steps were carried out at 4° (or on ice). Freshly dissected rat liver was dissected into 0.25M ice-cold Sucrose and subsequently homogenised (U-turrax) in 50 mM pH 6.0 phosphate buffer (10 ml/g tissue) containing 15 mM Dithiothreitol. The resulting homogenate was centrifuged @ 47,500×g for 20 min and supernatant (filtered through cotton wool to remove fatty lumps) stored @-80° before use (Rothenberg et al).
The binding reaction was stopped by the addition of 50 μl of a charcoal suspension (consisting of charcoal, Bovine Serum Albumin and Dextran present in a weight ratio of 100:4:1 suspended in 50 mM pH 6.0 phosphate buffer. Samples were vortexed, allowed to stand for 2 minutes and charcoal was precipitated by microcentrifugation @ full speed for 5 min. Aliquots of clear supernatant were transferred to counting vials containing liquid scintillant for measurement of radioactivity using Liquid Scintillation Spectroscopy.
Percentage inhibition values were calculated by comparison to this value.
(§1) Data are presented as mean±sem of number of experiments indicated in brackets.

sodium channel = test: veratrine-evoked uptake of [14C]guanidine into rat forebrain synaptosomes ([14C]guanidine flux); assay type: biochemical; conditions: for Hill (uptake of [14C]guanidine): slope
Description: The screening strategy is designed to select compounds with appropriate sodium channel blocking activity and low side effect liability. To this end all compounds are processed through the primary sodium channel assay (veratrine-evoked uptake of [^14C]guanidine into rat forebrain synaptosomes) and IC50 values computed from generated concentration-effect curves.
Synaptosomes (heavy and light mitochondrial fraction containing synaptosomes) were prepared by transferring the forebrain (of known wet weight) to a glass Potter vessel to which 9 volumes ice-cold 0.25M sucrose had been added and homogenising, using a teflon pestle, by 8 ‘up and down strokes’ of a Braun Potter S motor driven homogeniser set to 900 rpm. The resulting homogenate was centrifuged at 1036×g at 4° for 10 min and the supernatant collected. The remaining pellet was resuspended, as above, in fresh ice-cold 0.25M sucrose and the centrifugation step repeated. The supernatant fractions were pooled and centrifuged at 40,000×g (average) at 4° for 15 min and the resulting pellet resuspended in the appropriate assay buffer at a concentration of 20-25 mg wet weight per ml appropriate assay buffer.
Both assays were carried out using 14 ml polypropylene test tubes to which a range of concentrations of the compounds under test were added.
Compounds under test were pre-incubated for 10 min at 30° in incubation buffer (50 mM pH 7.4 HEPES (adjusted to pH 7.4 with Tris base), 130 mM choline chloride, 5.5 mM D-glucose, 0.8 mm MgSO4 and 5 mM KCl) containing 7.5 mg original wet weight of tissue and 100 μg veratrine HCl in a final volume of 0.5 ml. […] A further 2×5 ml of ice-cold wash buffer was added to each tube and the vacuum filtration step repeated. The GF/C glass fibre filters were transferred to minivials and 4 ml Picofluor^40 liquid scintillant added using a Brandel™ deposit/dispense system. Radioactivity was measured using a Beckman Liquid Scintillation Counter.
as §1

[2] = Table 3, rat forebrain synaptosomes, read-out: [14C]guanidine flux Mean (IC50: μM)
[3] = Table 8, read-out: IC50 (μM) (uptake of [14C]guanidine)
[4] = read-out: [3H]methotrexate binding Inhibition (% @ assay conc'n), assay concentration 99 μM
[5] = read-out: [3H]methotrexate binding Inhibition (% @ assay conc'n)

IC50 [1]: 95 µM
IC50 (sodium channel; [2]): 20.9 µM
SMILES: CCn1nc(-c2cc(Cl)ccc2Cl)c(N)nc1=N [Example 49, 5(3)-Amino-6-(2,5-dichlorophenyl)-2,3(2,5)-dihydro-3(5)-imino-2-ethyl-1,2,4-triazine methanesulfonate]

pIC50 (uptake of [14C]guanidine) (sodium channel; Table 8): 5.20 ± 0.05
IC50 (sodium channel; [3]): 6.31 µM
SMILES: N=c1nc(N)c(-c2cc(Cl)cc(Cl)c2Cl)nn1CCF [Example 55, 5(3)-Amino-6-(2,3,5-trichlorophenyl)-2,3(2,5)-dihydro-3(5)-imino-2-(2-fluoroethyl)-1,2,4-triazine methanesulfonate]
Hill (uptake of [14C]guanidine) (sodium channel; Table 8): 0.79

IC50 (sodium channel; [2]): 4.6 µM
SMILES: N=c1nc(N)c(-c2cccc(Cl)c2Cl)nn1Cc1ccccc1Cl [Example 22, 5(3)-Amino-6-(2,3-dichlorophenyl)-2,3(2,5)-dihydro-3(5)-imino-2-(2-chloro)phenylmethyl-1,2,4-triazine]

IC50 [1]: 105 µM
IC50 (sodium channel; [2]): 603 µM
SMILES: Nc1nnc(-c2ccc(Cl)cc2Cl)c(N)n1 [Example 44, 3,5-Diamino-6-(2,4-dichlorophenyl)-1,2,4-triazine]

pIC50 (uptake of [14C]guanidine) (sodium channel; Table 8): 2.90 ± 0.20
IC50 (sodium channel; [3]): 1260 µM
SMILES: N=c1nc(N)c(-c2cc(Cl)cc(Cl)c2Cl)nn1CCC(F)(F)F [Example 56, 5(3)-Amino-6-(2,3,5-trichlorophenyl)-2,3(2,5)-dihydro-3(5)-imino-2-(3,3,3-trifluoropropyl)-1,2,4-triazine methanesulfonate]
Hill (uptake of [14C]guanidine) (sodium channel; Table 8): 0.83

pIC50 (uptake of [14C]guanidine) (sodium channel; Table 8): 4.73 ± 0.11
IC50 (sodium channel; [3]): 18.6 µM
SMILES: CCn1nc(-c2cc(Cl)cc(Cl)c2)c(N)nc1=N [Example 54, 5(3)-Amino-6-(3,5-dichlorophenyl)-2,3(2,5)-dihydro-3(5)-imino-2-ethyl-1,2,4-triazine methanesulfonate]
Hill (uptake of [14C]guanidine) (sodium channel; Table 8): 0.76

pIC50 (uptake of [14C]guanidine) (sodium channel; Table 8): 5.00 ± 0.08
IC50 (sodium channel; [3]): 10 µM
SMILES: N=c1nc(N)c(-c2cccc(Cl)c2Cl)nn1CCF [Example 52, 5(3)-Amino-6-(2,3-dichlorophenyl)-2,3(2,5)-dihydro-3(5)-imino-2-(2-fluoroethyl)-1,2,4-triazine methanesulfonate]
Hill (uptake of [14C]guanidine) (sodium channel; Table 8): 0.74

IC50 [1]: > 300 µM
IC50 (sodium channel; [2]): 12.9 µM
SMILES: CC(C)(C)OC(=O)N1CCC(Cn2nc(-c3cccc(Cl)c3Cl)c(N)nc2=N)CC1 [Example 37, 1,1-Dimethylethyl 4-[5(3)-Amino-6-(2,3-dichlorophenyl)-2,3(2,5)-dihydro-3(5)-imino-1,2,4-triazin-2-ylmethyl]piperidine-1-carboxylate or 5(3)-Amino-6-(2,3-dichlorophenyl)-2,3(2,5)-dihydro-3(5)-imino-2-(Bocpiperidin-4-yl)methyl-1,2,4-triazine]

inhibition at 10 µM ([1]; read-out: [3H]methotrexate binding Inhibition (% @ assay conc'n), assay concentration 10 μM): -3%
inhibition at 99 µM [1, 4]: -3%
IC50 (sodium channel; [2]): 5.1 µM
SMILES: N=c1nc(N)c(-c2cccc(Cl)c2Cl)nn1Cc1ccc(F)cc1 [Example 16, 5(3)-Amino-6-(2,3-dichlorophenyl)-2,3(2,5)-dihydro-3(5)-imino-2-(4-fluoro)phenylmethyl-1,2,4-triazine]

IC50 [1]: 81.3 µM
IC50 (sodium channel; [2]): 490 µM
SMILES: Nc1nnc(-c2cccc(Cl)c2F)c(N)n1 [Example 35]

IC50 (sodium channel; [2]): 234 µM
SMILES: N=c1nc(N)c(-c2cccc(Cl)c2Cl)nn1Cc1ccc(C(N)=O)cc1 [Example 27, 4-{[5(3)-Amino-6-(2,3-dichlorophenyl)-2,3-dihydro-3(5)-imino-1,2,4-triazin-2-yl]methyl}benzamide or 5(3)-Amino-6-(2,3-dichlorophenyl)-2,3(2,5)-dihydro-3(5)-imino-2-(3-carboxamido)phenylmethyl-1,2,4-triazine]

inhibition at 50 µM ([1]; read-out: [3H]methotrexate binding Inhibition (% @ assay conc'n), assay concentration 50 μM): 82%
IC50 (sodium channel; [2]): > 500 µM
SMILES: Nc1nnc(-c2ccccc2)c(N)n1 [Example 43, 3,5-Diamino-6-phenyl-1,2,4-triazine]

pIC50 (uptake of [14C]guanidine) (sodium channel; Table 8): 4.34 ± 0.16
IC50 (sodium channel; [3]): 45.7 µM
SMILES: Cn1nc(-c2cc(Cl)cc(Cl)c2)c(N)nc1=N [Example 53, 5(3)-Amino-6-(3,5-dichlorophenyl)-2,3(2,5)-dihydro-3(5)-imino-2-methyl-1,2,4-triazine methanesulfonate]
Hill (uptake of [14C]guanidine) (sodium channel; Table 8): 0.73

IC50 (sodium channel; [2]): 6.2 µM
SMILES: N=c1nc(N)c(-c2cccc(Cl)c2Cl)nn1Cc1ccc(C(F)(F)F)cc1 [Example 25, 5(3)-Amino-6-(2,3-dichlorophenyl)-2,3(2,5)-dihydro-3(5)-imino-2-(4-trifluoromethyl)phenylmethyl-1,2,4-triazine]

IC50 (sodium channel; [2]): 5.3 µM
SMILES: N=c1nc(N)c(-c2cccc(Cl)c2Cl)nn1Cc1cccc(C(F)(F)F)c1F [Example 26, 5(3)-Amino-6-(2,3-dichlorophenyl)-2,3(2,5)-dihydro-3(5)-imino-2-(2-fluoro-3-trifluoromethyl)phenylmethyl-1,2,4-triazine]

inhibition at 20 µM [1, 5]: -2%
inhibition at 99 µM [1, 4]: -3%
IC50 (sodium channel; [2]): 4.1 µM
SMILES: Cc1ccc(Cn2nc(-c3cccc(Cl)c3Cl)c(N)nc2=N)cc1 [Example 12, 5(3)-Amino-6-(2,3-dichlorophenyl)-2,3(2,5)-dihydro-3(5)-imino-2-(4-methyl)phenylmethyl-1,2,4-triazine]

IC50 [1]: 442 ± 5.1 µM
IC50 (sodium channel; [2]): > 300 µM
SMILES: Nc1nnc(-c2cccc(F)c2F)c(N)n1 [Example 33, 6-(2,3-difluorophenyl)-1,2,4-triazine-3,5-diamine]

inhibition at 495 µM [1, 5]: 1%
IC50 (sodium channel; [2]): 676 µM
SMILES: CCn1nc(-c2ccccc2)c(N)nc1=N [Example 47, 5(3)-Amino-6-phenyl-2,3(2,5)-dihydro-3(5)-imino-2-ethyl-1,2,4-triazine methanesulfonate]

[3H]methotrexate binding Inhibition (% @ assay conc'n) ([1]; assay concentration 10 μM): −4%
[3H]methotrexate binding Inhibition (% @ assay conc'n) ([1]; assay concentration 95 μM): −4%
IC50 (sodium channel; [2]): 6.5 µM
SMILES: N=c1nc(N)c(-c2cccc(Cl)c2Cl)nn1Cc1ccc(Cl)cc1 [Example 21, 5(3)-Amino-6-(2,3-dichlorophenyl)-2,3(2,5)-dihydro-3(5)-imino-2-(4-chloro)phenylmethyl-1,2,4-triazine]

IC50 (sodium channel; [2]): 49 µM
SMILES: N=c1nc(N)c(-c2cccc(Cl)c2Cl)nn1Cc1ccc(CO)cc1 [Example 28, 4-{[5(3)-Amino-6-(2,3-dichlorophenyl)-2,3-dihydro-3(5)-imino-1,2,4-triazin-2-yl]methyl}phenylmethanol or 5(3)-Amino-6-(2,3-dichlorophenyl)-2,3(2,5)-dihydro-3(5)-imino-2-(4-hydroxymethyl)phenylmethyl-1,2,4-triazine]

[3H]methotrexate binding Inhibition (% @ assay conc'n) ([1]; assay concentration 9 μM): −4%
[3H]methotrexate binding Inhibition (% @ assay conc'n) ([1]; assay concentration 99 μM): −7%
IC50 (sodium channel; [2]): 3.5 µM
SMILES: N=c1nc(N)c(-c2cccc(Cl)c2Cl)nn1Cc1cccc(Cl)c1 [Example 20, 5(3)-Amino-6-(2,3-dichlorophenyl)-2,3(2,5)-dihydro-3(5)-imino-2-(3-chloro)phenylmethyl-1,2,4-triazine]

IC50 [1]: 288 µM
IC50 (sodium channel; [2]): 2290 µM
SMILES: Cn1nc(-c2ccccc2)c(N)nc1=N [Example 46, 5(3)-Amino-6-phenyl-2,3(2,5)-dihydro-3(5)-imino-2-methyl-1,2,4-triazine methanesulfonate]

inhibition at 495 µM [1, 5]: -1%
IC50 (sodium channel; [2]): 87.1 µM
SMILES: Cn1nc(-c2ccc(Cl)cc2Cl)c(N)nc1=N [Example 45, 5(3)-Amino-6-(2,4-dichlorophenyl)-2,3(2,5)-dihydro-3(5)-imino-2-methyl-1,2,4-triazine methanesulfonate]

IC50 [1]: 251 µM
IC50 (sodium channel; [2]): 28.2 µM
SMILES: Cn1nc(-c2cc(Cl)ccc2Cl)c(N)nc1=N [Example 48, 5(3)-Amino-6-(2,5-dichlorophenyl)-2,3(2,5)-dihydro-3(5)-imino-2-methyl-1,2,4-triazine methanesulfonate]

inhibition at 20 µM [1, 5]: -3%
inhibition at 99 µM [1, 4]: -3%
IC50 (sodium channel; [2]): > 100 µM
SMILES: N=c1nc(N)c(-c2cccc(Cl)c2Cl)nn1CC(N)=O [Example 11]
